Data on five compounds can be found in article PMC5815658 (Journal of Medicinal Chemistry, 2017).

Molecules are shown by their SMILES. Values after ≈ are worked out from the molar mass of the structure shown. “Also recorded” adds a separate entry of the source. Like-named read-outs stand apart in the source and are kept apart here. Peptide text beside a SMILES is read from it. * marks the point of attachment. Cbz = O=C(OCc1ccccc1)*

Data set [1] relates to proteasome. The experiment in a line: Rescue of PDP 16 pirin depletion by proteasome inhibitor in SK-OV-3 cells. The format is cell-based, human. Particulars: 500 nM, 4 h pretreatment, then PDP 16 24 h. On the procedure:
(§1) in vivo in athymic mice to increase its tumorigenicity and reliability as a xenograft, and used within 10 passages of banked stocks.
(§2) Prior to use, the cells were analyzed by short tandem repeat (STR) profiling. Polymorphic STR loci were amplified using a polymerase chain reaction (PCR) primer set. The PCR product (each locus being labelled with a different fluorophore) was analyzed simultaneously with size standards using automated fluorescent detection. The number of repeats at 10 different loci (as recommended by the American Type Culture Collection, ATCC) was used to define the STR profile and this was cross-referenced with online databases to confirm authenticity. […]
(§3) the ATCC reference line (LGC Promochem, UK). […]
(§4) nested PCR protocol (Venor GeM kit, Minerva Biolabs, Germany). Cells were grown in DMEM/10 % FCS, 2 mM glutamine and nonessential amino acids in 5 % CO2.
(§5) SK-OV-3 cells were treated as for each experimental condition. Cells were harvested and lysed by scraping in urea lysis buffer (20 mM HEPES pH 8.0, 9 M urea, 1 mM sodium orthovanadate, 2.5 mM sodium pyrophosphate, 1 mM β-glycerophosphate). […]
of samples was determined using a bicinchoninic acid (BCA) protein assay kit (Thermo Fisher Scientific). […]
Samples were treated, harvested and lysed as described above. […] The data was analyzed with the Compass software (ProteinSimple). […]

Data set [2] in a line: PDP aqueous stability protocol. Particulars: for half-life at 100 µM: phosphate buffer (PBS).
A short description of data set [3]: LogD7.4 determination by RP-HPLC. Particulars: pH 7.4.
Data set [4] deals with T1, CRBN-DDB1 complex (Homo sapiens, UniProt Q96SW2).
T1 construct: His6-ZZ-HRV3C (N); made in house; host or cells: Sf9 insect cells (baculovirus co-infection)
The data set can be described thus: CRBN/DDB1 fluorescence polarization competition assay. The data set is classed as binding. As to conditions: for Ki: calculated from geometric mean CRBN-DDB1 IC50 and FP-probe KD. As to the method:
CRBN/DDB1 Fluorescence Polarization Assay […]
Unless otherwise stated, the aqueous assay buffer contained 0.02 M HEPES((4-(2-hydroxyethyl)-1-piperazineethanesulfonic acid)) pH 8.0, 0.15 M NaCl, 0.5 mM TCEP ((tris(2-carboxyethyl)phosphine)), 0.05% Tween 20. The assay was conducted using 384 well black plates (ProxiPlate F Plus, Perkin-Elmer, Massachusetts, USA).
Plate Reader. […] Fluorescence […]
polarization was measured in units of millipolarization (mP) and are background corrected. Data were plotted and analyzed using […]
All experiments were performed in triplicate unless otherwise stated. Values are quoted as the geometric […]
Each graph is a representative example of a single biological repeat unless otherwise stated.
CRBN/DDB1 Protein Expression & Purification
Protein expression and purification methods adapted from Lopez-Girona et al.5 Full length human CRBN (accession number NM016302) was amplified by PCR & inserted downstream of the polyhedrin promoter of a pFBDM expression vector which had been modified to introduce a N-terminal His6-ZZ-HRV3C tag. Full length human DDB1 (accession number NM001923) was amplified by PCR with primers which introduced a C-terminal StrepTag and inserted downstream of the p10 promoter of a separate pFBDM expression vector. Baculoviruses were generated according to Bac-to-Bac protocols (Invitrogen) and used to co-infect Sf9 cells grown @ 27 °C in shaker flasks using Insect-XPRESS media (Lonza). Cells were harvested 48 hours post infection and frozen. For purification, pellets were thawed & resuspended in 5 volumes of Histrap buffer A (see below) and lysed […]
Superdex 200 (HiLoad 26/600), ResourceQ (6 mL) and finally a second Superdex 200 (HiLoad 26/600) column. All columns were from GE Healthcare and all purification steps were performed @ 4 °C. HisTrap buffer A: 50mM Tris (2-Amino-2-(hydroxymethyl)propane-1,3-diol), 500mM NaCl, 0.5mM TCEP ((tris(2-carboxyethyl)phosphine), 5% glycerol, pH 8.0. HisTrap Buffer B: + 250 mM imidazole. Superdex 200 buffer: 50mM Tris, 200mM NaCl, 0.5mM TCEP, 5% glycerol, pH 8.0. Resource Q buffer A: 50mM Tris, 0.5mM TCEP, 5% Glycerol, pH8.0. Resource Q buffer B + 1M NaCl.
California, USA) to prepare CRBN/DDB1 concentrations from 0.1 to 500 nM in 10 µL final assay volume containing 5 nM FP- […]
point prior to analysis. The KD was calculated using non-linear regression and a one-site specific binding model.
Analysis of competition assay FP-probe bound fraction […]
fb=probe bound fraction, KD=probe dissociation constant, L0=probe concentration, R0=protein concentration, Ki=ligand […]
CRBN/DDB1 Competition Assay
Compounds as solutions in DMSO were dispensed using an ECHO 550 Liquid Handler (Labcyte Inc).
Tracer controls (5 nM FP-probe S18 assay buffer only) and bound tracer controls (5 nM and 80 nM CRBN/DDB1) were included on each assay plate . Plates were incubated overnight at 4 °C before warming to room temperature and fluorescence polarization measured using an EnVision plate reader (Perkin -Elmer, Massachusetts, USA). IC 50 values […]
Table S2. CRBN/DDB1 Control Compounds

Data set [5] has as its target T2, pirin protein in SK-OV-3 human ovarian cancer cells (Homo sapiens, UniProt O00625).
T2 construct: endogenous in cells; host or cells: SK-OV-3
T2 sequence (O00625 1-290): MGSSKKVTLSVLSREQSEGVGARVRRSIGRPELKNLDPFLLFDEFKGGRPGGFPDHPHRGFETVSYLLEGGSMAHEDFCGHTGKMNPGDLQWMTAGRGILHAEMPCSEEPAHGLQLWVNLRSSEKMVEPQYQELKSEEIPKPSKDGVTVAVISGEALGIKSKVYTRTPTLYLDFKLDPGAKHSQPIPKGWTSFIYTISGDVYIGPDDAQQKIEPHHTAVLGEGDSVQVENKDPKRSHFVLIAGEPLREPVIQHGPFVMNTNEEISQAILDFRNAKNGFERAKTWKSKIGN
The data set can be described thus: Pirin depletion in SK-OV-3 cells (immunoblot / capillary electrophoresis immunoassay). The data set is classed as cell-based. As to the method:
as §1, §2, §3, §4, §5
(§6) of samples was determined using a bicinchoninic acid (BCA) protein assay kit (Thermo Fisher Scientific). Western blotting was carried out as previously described.10 Pirin and GAPDH antibodies were obtained from Abcam (ab157212) and Merck […]
(§7) Samples were treated, harvested and lysed as described above. A total of 5 μL of 0.2 mg/mL protein was loaded into plates and capillary western analysis was carried out according to the manufacturer’s instructions (ProteinSimple WES). The data was analyzed with the Compass software (ProteinSimple).
(§8) Sigma-Aldrich and Cell Signaling Technology, respectively.
(§9) 10 Sharp SY, Boxall K, Rowlands M, Prodromou C, Roe SM, Maloney A, Powers M, Clarke PA, Box G, Sanderson S, Patterson L, Matthews TP, Cheung KM, Ball K, Hayes A, Raynaud F, Marais R, Pearl L, Eccles S, Aherne W, McDonald E, Workman P. In vitro biological characterization of a novel, synthetic diaryl pyrazole resorcinol class of heat shock protein 90 inhibitors.
A general note: In western blotting, separated proteins are transferred to a membrane and probed.

Data set [6] concerns the target T3, pirin (Homo sapiens, UniProt O00625).
T3 sequence (O00625 1-290): T2 sequence (O00625 1-290)
The data set can be described thus: Pirin SPR (surface plasmon resonance) binding. Particulars: for Measured Rmax/Theoretical Rmax: SPR. Background: SPR reads the build-up and loss of mass on a sensor chip optically.

Data set [7] is described as follows: Kinetic solubility determination by RP-HPLC. As to conditions: PBS, pH 7.4, aqueous buffer, kinetic from dmso stock.
For data set [8], the target named is T3, pirin. The experiment in a line: Intracellular competition: rescue of PDP 16 pirin depletion by pirin ligands in SK-OV-3 cells. Also on record: endogenous in cells; host or cells: SK-OV-3. The format is cell-based. On the procedure:
as §1, §2, §3, §4, §5, §6, §7, §8, §9

The mark [9] stands for this setting: CRBN/DDB1 FP IC50, single repeat N=2, best-fit value, variable slope four parameters.
[10] abbreviates: best-fit value, variable slope four parameters, read-out: CRBN/DDB1 FP IC50, single repeat N=1.
Where [11] appears, read: best-fit value, variable slope four parameters, read-out: CRBN/DDB1 FP IC50, single repeat N=3.
Setting [12] is: displacement of thalidomide derived fluorescent probe, geometric mean n = 3, read-out: CRBN/DDB1 FP IC50.
[13] abbreviates: Pirin SPR KD, equilibrium analysis, one site specific binding model, geometric mean n = 3.
Setting [14] is: Pirin SPR KD, representative single repeat, best-fit value, one site specific binding.
Setting [15] is: Pirin SPR pKD, mean of 3 values (unrounded), column statistics.
The mark [16] stands for this setting: Pirin SPR pKD±SEM, n = 3 independent biological repeats.
[17] abbreviates: 4 h pretreatment, then PDP 16 for 2 h, SK-OV-3, Figure 4.

As a reminder, the half-life is the time in which the quantity being followed falls by half. A lower half-life goes with rapid decline. The chromatographic logD is lipophilicity estimated from chromatographic retention. A higher chromatographic logD goes with higher lipophilicity. Usually Ki stands for the dissociation constant of the complex between target and ligand, obtained from inhibition or displacement. The term Kd denotes the equilibrium constant for the complex coming apart. High values mean lower affinity, low ones higher affinity. Usually kinetic solubility stands for the concentration staying in solution when a stock, usually in DMSO, is diluted into the medium.

For `CC(C)C[C@@H](C=O)NC(=O)[C@H](CC(C)C)NC(=O)[C@H](CC(C)C)NC(=O)OCc1ccccc1` [MG132] (Cbz-Leu-Leu-Leu-aldehyde), the “Rescue of pirin degradation by MG132 preincubation” value in data set [1] is listed as “rescue”.

In the case of `Cc1ccc(NC(=O)c2ccc3c(c2)OCCO3)cc1NC(=O)c1ccc2nc(OCCCC(=O)NCCOCCNC(=O)COc3cccc4c3C(=O)N(C3CCC(=O)NC3=O)C4=O)ccc2c1` (centres unmarked) [PDP 3, N-(5-(2,3-Dihydrobenzo[b][1,4]dioxine-6-carboxamido)-2-methylphenyl)-2-(4-((2-(2-(2-((2-(2,6-dioxopiperidin-3-yl)-1,3-dioxoisoindolin-4-yl)oxy)acetamido)ethoxy)ethyl)amino)-4-oxobutoxy)quinoline-6-carboxamide], in data set [2] (pH 7.4), the half-life at 100 µM was 7.2 h. Further, the chromatographic logD in data set [3] was 2.2. Also, the IC50 was 496 nM in data set [4] (setting [9]); 1510 nM in data set [4] (setting [10]); 811 nM in data set [4] (setting [11]); 847 nM in data set [4] (column statistics, read-out: CRBN/DDB1 FP pIC50, mean of 3 values (unrounded) (converted)); 850 nM in data set [4] (setting [12]). For the same compound, in data set [4], the inhibition constant Ki is 220 nM. Further, the “Effects on SK-OV-3 cells” value in data set [5] (>1 μM, >48 h, data not shown) is reported as “no measurable effects on the cancer cells”. Moreover, the Kd in data set [6] (setting [13]) is 110 nM; in data set [6] (setting [14]) it was 111 nM; in data set [6] (setting [15]), 108 nM; in data set [6] (setting [16]), 107 nM. Also, in data set [6], the “Measured Rmax/Theoretical Rmax” value is 0.44. In data set [7], the solubility (kinetic) at 120 min was found to be 1 µM (≈ 0.942 µg/mL).

`O=C1CCC(N2C(=O)c3cccc(OCCOCCOCCN4CCN(Cc5ccc6cc(C(=O)Nc7cc(NC(=O)c8cccc9c8OCCO9)ccc7Cl)ccc6n5)CC4)c3C2=O)C(=O)N1` (centres unmarked) [PDP 21, N-(2-Chloro-5-(2,3-dihydrobenzo[b][1,4]dioxine-5-carboxamido)phenyl)-2-((4-(2-(2-(2-((2-(2,6-dioxopiperidin-3-yl)-1,3-dioxoisoindolin-4-yl)oxy)ethoxy)ethoxy)ethyl)piperazin-1-yl)methyl)quinoline-6-carboxamide] had a half-life at 100 µM in data set [2] (pH 7.4, Half-life (aqueous stability), 37 °C, pH 7.4 phosphate buffer) of 2.8 h. The compound also returned a chromatographic logD in data set [3] of 2.9. The IC50 in data set [4] (setting [9]) was 277 nM; in data set [4] (setting [10]), 590 nM; in data set [4] (setting [11]), 444 nM; in data set [4] (setting [12]) it was 420 nM. Also, the inhibition constant Ki in data set [4] is 98 nM. For the same compound, in data set [5] (SK-OV-3 cells, 24 h treatment, Western blot, Figure S19), the “Pirin depletion by negative control” value is listed as “does not deplete pirin protein; also recorded: no pirin depletion”. The equilibrium dissociation constant (Kd) in data set [6] (setting [13]) was greater than 1300 nM; in data set [6] (setting [16]), greater than 1260 nM. Also, in data set [7], the solubility (kinetic) at 120 min came to 2 µM (≈ 1.89 µg/mL).

`Cc1ccc(NC(=O)c2ccc3c(c2)OCCO3)cc1NC(=O)c1ccc2nc(OCCN3CCCC3)ccc2c1` [chemical probe 1]: in data set [2] (37 °C, pH 7.4 phosphate buffer), the “Stability in pH 7.4 phosphate buffer” value was “no instability”.

On to `CCN1CCN(Cc2ccc3cc(C(=O)Nc4cc(NC(=O)c5ccc6c(c5)OCCO6)ccc4Cl)ccc3n2)CC1` [chlorobisamide 22, N-(2-Chloro-5-(2,3-dihydrobenzo[b][1,4]dioxine-6-carboxamido)phenyl)-2-((4-ethylpiperazin-1-yl)methyl)quinoline-6-carboxamide], for which the “Concentration giving complete rescue of pirin expression” value in data set [8] (setting [17]) amounted to 1 µM. Further, in data set [8] (setting [17]), the “Rescue of pirin expression following treatment with PDP 16” value is reported as “concentration-dependent rescue of pirin expression”. In data set [8] (concentration > 1 μM, data not shown), the “Competition of PDP 16 at 6 h exposure” value is listed as “unsuccessful”. In addition, the dissociation constant (Kd) is 19.9 nM in data set [6] (setting [14]), 20.8 nM in data set [6] (setting [15]) and 20.9 nM in data set [6] (setting [16]). In data set [6], the “Measured Rmax/Theoretical Rmax” value worked out at 0.29.
